Laboratory results taken from PubChem BioAssay (NCI).
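These data come from cells grown in 96-well plates and exposed to compound for 48 hours at five concentrations. TGI marks complete inhibition of growth.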

Legend:
Assay in all cases: inhibition of tumour cell growth, NCI panel, 48 h
HCC-2998 colon = test system: HCC-2998 colon
HCT-116 colon = test system: HCT-116 colon
HT29 colon = test system: HT29 colon
CCRF-CEM leukemia = test system: CCRF-CEM leukemia
HCT-15 colon = test system: HCT-15 colon
NCI-H522 lung = test system: NCI-H522 lung
SF-268 CNS = test system: SF-268 CNS
SK-MEL-2 melanoma = test system: SK-MEL-2 melanoma
MDA-MB-231 breast = test system: MDA-MB-231 breast
U251 CNS = test system: U251 CNS
786-0 renal = test system: 786-0 renal
HS 578T breast = test system: HS 578T breast
MOLT-4 leukemia = test system: MOLT-4 leukemia
MCF7 breast = test system: MCF7 breast
SF-295 CNS = test system: SF-295 CNS
A549 NSCLC = test system: A549 NSCLC
MALME-3M melanoma = test system: MALME-3M melanoma
HOP-92 NSCLC = test system: HOP-92 NSCLC
BT-549 breast = test system: BT-549 breast

SMILES	TGI (HCC-2998 colon)	TGI (HCT-116 colon)	TGI (HT29 colon)	TGI (CCRF-CEM leukemia)	TGI (HCT-15 colon)	TGI (NCI-H522 lung)	TGI (SF-268 CNS)	TGI (SK-MEL-2 melanoma)	TGI (MDA-MB-231 breast)	TGI (U251 CNS)	TGI (786-0 renal)	TGI (HS 578T breast)	TGI (MOLT-4 leukemia)	TGI (MCF7 breast)	TGI (SF-295 CNS)	TGI (A549 NSCLC)	TGI (MALME-3M melanoma)	TGI (HOP-92 NSCLC)	TGI (BT-549 breast)
CCOP(=O)(OCC)/C(=C\n1ccc(=O)[nH]c1=S)C(=O)OC	> 100 µM	> 100 µM	> 100 µM	> 100 µM	> 100 µM	> 100 µM	> 100 µM	> 100 µM	> 100 µM	> 100 µM	> 100 µM	> 100 µM	> 100 µM	> 100 µM	> 100 µM	> 100 µM	> 100 µM		
CCCC(=O)Oc1c2ccsc2c(OC(=O)CCC)c2ccsc12	6.71 µM	4.82 µM	12 µM	9.13 µM	4.59 µM	4.85 µM	10.7 µM	1.86 µM	10.3 µM	4.4 µM	8.04 µM		7.63 µM	7.55 µM	0.885 µM	6.84 µM	0.699 µM	3.06 µM	2.83 µM
OC(c1cc2ccccc2[nH]1)C(O)(c1cc2ccccc2[nH]1)c1cc2ccccc2[nH]1 (centres undefined)	44.3 µM	27.3 µM	36.2 µM	> 245 µM	33 µM	37.5 µM	85.2 µM	50 µM		78.4 µM	20.8 µM		> 245 µM		31.3 µM	63 µM	59.7 µM	50.1 µM	
Nc1nncc2n[nH]nc12		> 100 µM	> 100 µM	> 100 µM	> 100 µM		> 100 µM	> 100 µM	> 100 µM	> 100 µM	> 100 µM	> 100 µM	91 µM	> 100 µM	> 100 µM	> 100 µM			> 100 µM
O=c1c2ccccc2ncn1COCc1ccccc1	> 100 µM	> 100 µM	> 100 µM	> 100 µM	> 100 µM			> 100 µM		> 100 µM	> 100 µM		> 100 µM	> 100 µM	> 100 µM	> 100 µM		> 100 µM	
Cc1cc(OP2(=O)NCc3ccncc3O2)ccc1Cl (centres undefined)	> 100 µM	> 100 µM	> 100 µM	> 100 µM	> 100 µM			> 100 µM	> 100 µM	> 100 µM	> 100 µM		> 100 µM	> 100 µM	> 100 µM	> 100 µM		> 100 µM	> 100 µM
CCOC(=O)c1ccc(NCc2ccc3nc(OC)c(OC)nc3c2)cc1	> 100 µM	> 100 µM	> 100 µM	> 100 µM	> 100 µM	> 100 µM	> 100 µM	> 100 µM	> 100 µM	> 100 µM	> 100 µM		> 100 µM	> 100 µM	> 100 µM	> 100 µM	> 100 µM	> 100 µM	
N=C1c2ccccc2C(=O)c2c(NCCNCCO)ccc(O)c21	21.4 µM	15 µM	> 100 µM	53.9 µM	> 63 µM	13.3 µM	14.2 µM	33.5 µM		18.9 µM	> 38.7 µM		10.8 µM		> 40.5 µM	22.6 µM	35.8 µM	> 71.2 µM	
C/C(CC(O)(C(F)(F)F)C(F)(F)F)=N\NC(N)=S	> 10 µM	> 10 µM	> 10 µM	> 10 µM	> 10 µM	> 10 µM	> 10 µM	> 10 µM	> 10 µM	> 10 µM	> 10 µM	> 10 µM	> 10 µM	> 10 µM	> 10 µM	> 10 µM	> 10 µM	> 10 µM	
CS(=O)(=O)c1ccc(C(=O)O[C@@H]2C(=O)N3CC[C@H]4OC(O)[C@@H]2[C@H]43)cc1 (some centres undefined)	> 100 µM	> 100 µM	> 100 µM		> 100 µM		> 100 µM	> 100 µM	> 100 µM	> 100 µM	> 100 µM		> 100 µM	> 100 µM	> 100 µM	> 100 µM			> 100 µM
C[C@H](CCC(=O)O)[C@H]1CC[C@H]2[C@@H]3[C@@H](O)C[C@@H]4C[C@H](O)CC[C@]4(C)[C@H]3C[C@H](O)[C@]12C	> 100 µM	> 100 µM	> 100 µM	> 100 µM	> 100 µM	> 100 µM	> 100 µM	> 100 µM	> 100 µM	> 100 µM	> 100 µM	> 100 µM	> 100 µM	> 100 µM		> 100 µM	> 100 µM	> 100 µM	
